Measured values reported in patent US6413974B1, “6,9,-disubstituted 2-[trans-(4-aminocyclohexyl) amino] purines” (Aventis Pharmaceuticals Inc., priority 1998, dated 2002).
Values joined by “and” are separate entries in the source; they are usually repeats but may differ in a detail not shown here. Equal values may be shown once. Where a name gives a salt, the structure may show the parent alone. Read-outs that look alike come from different tables or passages of the source.

What was measured:
Colo-205 = test: In vitro tumor cell proliferation, Colo-205; assay type: cell-based, human; details: read-out: In vitro Tumor Cell Proliferation (IC50, μM) Colon Colo-205
In short: (§1)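 Cells seeded overnight at 37° C, then exposed to drug 3 days, medium and drug renewed, plus 4 more days; TCA-fixed and sulforhodamine B stained. Alternatively CyQUANT read-out after 3 days' drug exposure, plates frozen at −80° C.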

PC-3 = test: In vitro tumor cell proliferation, PC-3; assay type: cell-based, human; details: read-out: In vitro Tumor Cell Proliferation (IC50, μM) Prostate PC-3
In short: as §1

DU 145 = test: In vitro tumor cell proliferation, DU 145; assay type: cell-based, human; details: read-out: In vitro Tumor Cell Proliferation (IC50, μM) Prostate DUI45
In short: as §1

A549 = test: In vitro tumor cell proliferation, A549; assay type: cell-based, human; details: read-out: In vitro Tumor Cell Proliferation (IC50, μM) Lung A549
In short: as §1

cdk2/cyclin E = target: T1, cdk2/cyclin E (Homo sapiens, UniProt P24941); test: Cyclin-Dependent Kinase 2 Assay (cdk-2 inhibition); assay type: biochemical; details: GST-Rb substrate, 30 min at 30° C.
T1 construct: made in house; host or cells: insect cells (baculovirus co-infection)
In short: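 GST-Rb bound to glutathione-Sepharose beads (0.5 μg/well) as substrate in 50 mM HEPES pH 7.5, 10 mM MgCl2, 1 mM EGTA. Recombinant cdk2/cyclin E at 0.1 μg per 100 μl, 30 min at 30 °C. Reaction stopped by filtration, TNEN washes, scintillation counting.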

MDA-MB-435 = test: In vitro tumor cell proliferation, MDA-MB-435; assay type: cell-based, human; details: read-out: In vitro Tumor Cell Proliferation (IC50, μM) Breast MDA-MB-435
In short: as §1

HT-29 = test: In vitro tumor cell proliferation, HT-29; assay type: cell-based, human; details: read-out: In vitro Tumor Cell Proliferation (IC50, μM) Colon HT-29 (converted)
In short: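 HT-29 human colon adenocarcinoma cells plated overnight at 37° C., then exposed to drug for 3 days, medium with fresh drug replaced for a further 4 days. Cells fixed with 10% TCA and stained with 0.4% sulforhodamine B; alternatively, CyQUANT read after 3 days of drug exposure.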

DMS-114 = test: In vitro tumor cell proliferation, DMS-114; assay type: cell-based, human; details: read-out: In vitro Tumor Cell Proliferation (IC50, μM) Lung DMS-114
In short: as §1

cdk4/cyclin D1 = target: T2, cdk4/cyclin D1 (Homo sapiens, UniProt P11802); test: Cyclin-dependent kinase 4 Assay; assay type: biochemical; details: cdk4/cyclin D1, GST-Rb substrate, 10 μM ATP, 30 min at 37° C.; read-out: CDK4 Inhibition IC50
T2 construct: made in house; host or cells: Sf9 insect cells (Bac-to-Bac baculovirus, pFastBac)
In short: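 Insect-cell lysate of coexpressed human cdk4/cyclin D1 (0.1 μg) phosphorylated bead-bound GST-Rb (0.5 μg) in 50 mM HEPES pH 7.5, 10 mM MgCl2, 1 mM EGTA for 30 min at 37 °C. Filters were washed with TNEN and scintillation-counted; IC50 values derived.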

MDA-MB-231 = test: In vitro tumor cell proliferation, MDA-MB-231; assay type: cell-based, human; details: read-out: In vitro Tumor Cell Proliferation (IC50, μM) Breast MDA-MB-231
In short: as §1

[1] = Homo sapiens, COLO 205, values marked * (mark not explained)
[2] = values marked * (mark not explained), dihydrochloride
[3] = Homo sapiens, PC-3, values marked * (mark not explained)
[4] = Homo sapiens, DU-145, values marked * (mark not explained)
[5] = Homo sapiens, A549, values marked * (mark not explained)
[6] = Homo sapiens, MDA-MB-435, values marked * (mark not explained)
[7] = Homo sapiens, HT-29, values marked * (mark not explained)
[8] = Homo sapiens, DMS-114, values marked * (mark not explained)
[9] = Homo sapiens, MDA-MB-231, values marked * (mark not explained)

T2 sequence (P11802 whole entry): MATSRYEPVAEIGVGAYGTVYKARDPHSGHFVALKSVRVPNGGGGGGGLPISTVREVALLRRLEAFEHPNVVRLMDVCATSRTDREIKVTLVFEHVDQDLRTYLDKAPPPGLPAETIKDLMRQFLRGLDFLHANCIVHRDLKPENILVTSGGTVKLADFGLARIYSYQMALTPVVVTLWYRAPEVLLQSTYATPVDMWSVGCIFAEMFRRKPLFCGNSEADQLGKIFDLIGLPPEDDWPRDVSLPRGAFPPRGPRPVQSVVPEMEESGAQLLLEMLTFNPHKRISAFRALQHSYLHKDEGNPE
T2 sequence (P24385 whole entry partner): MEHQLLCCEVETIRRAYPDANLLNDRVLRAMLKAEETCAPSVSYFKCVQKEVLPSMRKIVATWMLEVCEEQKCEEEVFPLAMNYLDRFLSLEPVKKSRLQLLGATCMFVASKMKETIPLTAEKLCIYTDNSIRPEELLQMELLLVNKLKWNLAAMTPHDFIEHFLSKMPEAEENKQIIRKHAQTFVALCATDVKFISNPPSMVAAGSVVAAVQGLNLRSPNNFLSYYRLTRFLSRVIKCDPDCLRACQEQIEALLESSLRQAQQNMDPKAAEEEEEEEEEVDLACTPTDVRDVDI

Structure (SMILES) | IC50 (Colo-205; [1]) [µM] | IC50 (Colo-205; [2]) [µM] | IC50 (PC-3; [3]) [µM] | IC50 (DU 145; [4]) [µM] | IC50 (A549; [5]) [µM] | IC50 (A549; [2]) [µM] | IC50 (cdk2/cyclin E) | IC50 (MDA-MB-435; [6]) [µM] | IC50 (MDA-MB-435; [2]) [µM] | IC50 (HT-29; [7]) [µM] | IC50 (HT-29; [2]) [µM] | IC50 (DMS-114; [8]) [µM] | IC50 (DMS-114; [2]) [µM] | IC50 (cdk4/cyclin D1) | IC50 (MDA-MB-231; [9]) [µM] | IC50 (MDA-MB-231; [2]) [µM] | IC50 (PC-3; [2]) [µM] | IC50 (DU 145; [2]) [µM]
N[C@H]1CC[C@H](Nc2nc(NCc3cccs3)c3ncn(C4CCCC4)c3n2)CC1 [Example 17, 2-[Trans-(4-aminocyclohexyl)amino]-6-(2-thiophenemethylamino)-9-cyclopentylpurine dihydrochloride] | 2.2 | 3 | 1.7 | 1.6 | 1.8 | 1.6 | 69 nM and 46 nM | 3.2 | 3.7 | 2.4 | 2.6 | 1.9 | 1.7 | 300 nM and 500 nM | 2.4 | 3 |  | 
CCCCCCCCNc1nc(N[C@H]2CC[C@H](N)CC2)nc2c1ncn2C1CCCC1 [Example 20, 2-[Trans-(4-aminocyclohexyl)amino]-6-(octylamino)-9-cyclopentylpurine dihydrochloride] | 1.9 | 1.4 | 1.7 | 2.4 | 1.7 | 1 | 330 nM and 310 nM and 460 nM | 2.3 | 1.8 | 1.9 | 1.7 | 1.1 | 0.95 | 2400 nM | 2.7 | 1.9 | 1.8 | 1.9
N[C@H]1CC[C@H](Nc2nc(NCCCCc3ccccc3)c3ncn(C4CCCC4)c3n2)CC1 [Example 21, 2-[Trans-(4-aminocyclohexyl)amino]-6-(4-phenylbutylamino)-9-cyclopentylpurine dihydrochloride] | 0.51 | 0.78 | 0.6 | 0.4 | 0.5 |  | 39 nM and 91 nM | 1.3 | 1.2 | 0.7 | 0.8 | 0.7 | 0.6 | 1000 nM | 0.8 | 0.9 | 0.8 | 0.7
N[C@H]1CC[C@H](Nc2nc(NCCCCCO)c3ncn(C4CCCC4)c3n2)CC1 [Example 25, 2-[Trans-(4-aminocyclohexyl)amino]-6-[5-(hydroxy)pentylamino]-9-cyclopentylpurine dihydrochloride] | 2.4 | 2.3 | 1.8 | 3.9 | 6.1 | 5.5 | 21 nM | 6 |  | 5.6 | 6.2 | 6.6 | 4.5 | 110 nM | 3.4 | 5.4 | 2.3 | 4.6
N[C@H]1CC[C@H](Nc2nc(NNCCc3ccccc3)c3ncn(C4CCCC4)c3n2)CC1 [Example 35, 2-[Trans-(4-aminocyclohexyl)amino]-6-[2-phenethylhydrazino]-9-cyclopentylpurine dihydrochloride] | 3.4 | 3.2 | 3 | 3.7 | 2.7 | 2.5 | 253 nM | 9.5 | 8 | 5.6 | 5.4 | 3 | 2.7 | 2200 nM and 1600 nM | 4.2 | 5.6 | 4.4 | 3.2
CCCCNc1nc(N[C@H]2CC[C@H](N)CC2)nc2c1ncn2C(C)C [Example 37, 2-[Trans-(4-aminocyclohexyl)amino]-6-[(butyl)amino]-9-(2-propyl)purine dihydrochloride] |  | 11 | 11 | > 20 |  | 8.3 | 240 nM | 19 | 16 | 19 |  | 9.7 | 8 | 7000 nM | 24 |  |  | 10
CCCCCCNc1nc(N[C@H]2CC[C@H](N)CC2)nc2c1ncn2C1CCCC1 [Example 41, 2-[Trans-(4-aminocyclohexyl)amino]-6-(hexylamino)-9-cyclopentylpurine dihydrochloride] | 1.7 |  | 1.5 | 1.1 | 1.1 |  | 200 nM | 2.6 |  | 1.6 |  | 0.9 |  | 820 nM and 1900 nM | 1.7 |  |  | 
CCCNc1nc(N[C@H]2CC[C@H](N)CC2)nc2c1ncn2C1CCCC1 [Example 44, 2-[Trans-(4-aminocyclohexyl)amino]-6-(propylamino)-9-cyclopentylpurine dihydrochloride] | 0.58 | 0.4 | 0.52 | 0.5 | 0.63 | 0.47 | 9 nM and 11 nM | 0.85 |  | 0.69 | 0.65 | 0.44 | 0.53 | 250 nM and 370 nM and 160 nM | 0.8 | 0.6 | 0.47 | 0.6
N[C@H]1CC[C@H](Nc2nc(NCCc3ccc(O)cc3)c3ncn(C4CCCC4)c3n2)CC1 [Example 55, 2-[Trans-(4-aminocyclohexyl)amino]-6-[(4-hydroxyphenyl)ethylamino]-9-cyclopentylpurine. dihydrochloride] | 4.3 | 4.2 | 4.2 | 6.7 | 7.3 | 6.4 | 89 nM | 6.7 | 7.2 | 7 | 6.1 | 7 | 4.8 | 2100 nM and 1100 nM and 700 nM | 5.2 | 5.6 | 4 | 7.2
